Results as given in ChEMBL document CHEMBL1201862, “PubChem BioAssay data set” (2004).
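Compound exposure: 48 hours, 5 concentrations, 96-well plates. GI50 = concentration required for 50% inhibition of growth.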 Active and inactive are the calls of the source. Rule as the data show it: active = GI50 up to about 1.1 µM and inactive = higher.

Legend:
Assay in all cases: growth of human tumour cells (NCI), 48 h
[1] = system: T47D
[2] = system: Malme-3M
[3] = system: HT-29
[4] = system: HOP-62
[5] = system: NCI-H522
[6] = system: U-251
[7] = system: SK-MEL-5
[8] = system: NCI/ADR-RES
[9] = system: OVCAR-3
[10] = system: SNB-19
[11] = system: RXF 393
[12] = system: HOP-92
[13] = system: IGROV-1
[14] = system: SF-295
[15] = system: MOLT-4
[16] = system: OVCAR-4
[17] = system: EKVX
[18] = system: HCC 2998
[19] = system: Hs-578T
[20] = system: SF-268

SMILES	GI50 [1]	GI50 [2]	GI50 [3]	GI50 [4]	GI50 [5]	GI50 [6]	GI50 [7]	GI50 [8]	GI50 [9]	GI50 [10]	GI50 [11]	GI50 [12]	GI50 [13]	GI50 [14]	GI50 [15]	GI50 [16]	GI50 [17]	GI50 [18]	GI50 [19]	GI50 [20]
CC(C)C(C/C=C1/CC(CO)(COC(=O)C(C)(C)C)OC1=O)C(C)C (stereo unspecified)	4.52 µM (inactive)	3.62 µM (inactive)	16.7 µM (inactive)	1.03 µM (active)	12.6 µM (inactive)	12.6 µM (inactive)	4.52 µM (inactive)	15.7 µM (inactive)	15.6 µM (inactive)	12.9 µM (inactive)	15.6 µM (inactive)	10.4 µM (inactive)	16.2 µM (inactive)	2.61 µM (inactive)	0.514 µM (active)	16.6 µM (inactive)	8.17 µM (inactive)	3.1 µM (inactive)	0.735 µM (active)	10.8 µM (inactive)
O=C(O)C(Cl)(c1ccccc1)c1ccccc1	> 100 µM (inactive)	> 100 µM (inactive)	> 100 µM (inactive)	> 100 µM (inactive)	> 100 µM (inactive)	> 100 µM (inactive)	> 100 µM (inactive)	> 100 µM (inactive)	> 100 µM (inactive)	> 100 µM (inactive)	> 100 µM (inactive)	> 100 µM (inactive)	> 100 µM (inactive)	> 100 µM (inactive)	> 100 µM (inactive)	> 100 µM (inactive)	> 100 µM (inactive)	> 100 µM (inactive)	> 100 µM (inactive)	> 100 µM (inactive)
O=C(O)c1ccc(C2=Nc3cccc4cccc(c34)N2)cc1	57.9 µM (inactive)	> 100 µM (inactive)	> 100 µM (inactive)	> 100 µM (inactive)	82.6 µM (inactive)	> 100 µM (inactive)	> 100 µM (inactive)	> 100 µM (inactive)	> 100 µM (inactive)	> 100 µM (inactive)	> 100 µM (inactive)	45.6 µM (inactive)	> 100 µM (inactive)	> 100 µM (inactive)	25.4 µM (inactive)	> 100 µM (inactive)	> 100 µM (inactive)	> 100 µM (inactive)	> 100 µM (inactive)	> 100 µM (inactive)
CCCCc1cc2c(C)cc(=O)oc2c(O)c1O	21.7 µM (inactive)	27.8 µM (inactive)	27.9 µM (inactive)	23.3 µM (inactive)	21.5 µM (inactive)	23.7 µM (inactive)	20.7 µM (inactive)	22.6 µM (inactive)	29.1 µM (inactive)	37.9 µM (inactive)	24.8 µM (inactive)	19.4 µM (inactive)	24.6 µM (inactive)	22.2 µM (inactive)	25.2 µM (inactive)	32.1 µM (inactive)	52.8 µM (inactive)	3.15 µM (inactive)	22.9 µM (inactive)	38.8 µM (inactive)
CCN1CCN(c2ccc(Nc3ccnc4ccc5c(nnn5C)c34)cc2)CC1	16 µM (inactive)	5.89 µM (inactive)	3.72 µM (inactive)	5.05 µM (inactive)	1.1 µM (active)	5.69 µM (inactive)	11 µM (inactive)	9.14 µM (inactive)	5.56 µM (inactive)	3.15 µM (inactive)	7.19 µM (inactive)	4.8 µM (inactive)	12.9 µM (inactive)	8.2 µM (inactive)	4.45 µM (inactive)	7.23 µM (inactive)	13.7 µM (inactive)	1.58 µM (inactive)	13.1 µM (inactive)	6.46 µM (inactive)
CN(CCc1ccccn1)C(=S)N/N=C(\c1ccccc1)c1ccccn1	< 0.01 µM (active)	< 0.01 µM (active)	< 0.01 µM (active)	< 0.0215 µM (active)	< 0.01 µM (active)	0.0101 µM (active)	0.0986 µM (active)	< 0.01 µM (active)	< 0.01 µM (active)	0.215 µM (active)	1.09 µM (active)	1.73 µM (inactive)	< 0.01 µM (active)	< 0.0266 µM (active)	< 0.01 µM (active)	0.0334 µM (active)	< 0.01 µM (active)	1.52 µM (inactive)	1.91 µM (inactive)	
COc1c(C)c2c(c(=O)c3c(C)cccc3n2C)c2c1c(=O)c1c(C)cccc1n2C	> 10 µM (inactive)	> 10 µM (inactive)	> 10 µM (inactive)	> 10 µM (inactive)	> 10 µM (inactive)	> 10 µM (inactive)	> 10 µM (inactive)	9.18 µM (inactive)	> 10 µM (inactive)	> 10 µM (inactive)	> 10 µM (inactive)	> 10 µM (inactive)	> 10 µM (inactive)	> 10 µM (inactive)	> 10 µM (inactive)	> 10 µM (inactive)	> 10 µM (inactive)	> 10 µM (inactive)	> 10 µM (inactive)	> 10 µM (inactive)
Cc1cc(S(=O)(=O)NC2=Nc3cccc(F)c3CN2)c(S)cc1Cl	28.1 µM (inactive)	> 100 µM (inactive)			52.6 µM (inactive)	44.5 µM (inactive)	22 µM (inactive)	49.4 µM (inactive)	63 µM (inactive)	23.2 µM (inactive)	> 100 µM (inactive)	> 100 µM (inactive)	36.2 µM (inactive)	30.1 µM (inactive)	49.3 µM (inactive)	68.1 µM (inactive)	75 µM (inactive)	> 100 µM (inactive)	> 100 µM (inactive)	76.9 µM (inactive)
COC(=O)C1=C(C)NC(C)=C(C(=O)OC)C1c1ccccc1NO	> 100 µM (inactive)	> 100 µM (inactive)	> 100 µM (inactive)	> 100 µM (inactive)	> 100 µM (inactive)	> 100 µM (inactive)	> 100 µM (inactive)	> 100 µM (inactive)	> 100 µM (inactive)	> 100 µM (inactive)	> 100 µM (inactive)	> 100 µM (inactive)	> 100 µM (inactive)	> 100 µM (inactive)	27.4 µM (inactive)	> 100 µM (inactive)	> 100 µM (inactive)	> 100 µM (inactive)	> 100 µM (inactive)	> 100 µM (inactive)
O=C1NC(N2CCCCC2)=N/C1=C\c1ccccc1	> 100 µM (inactive)	> 100 µM (inactive)	> 100 µM (inactive)	> 100 µM (inactive)	> 100 µM (inactive)	> 100 µM (inactive)		> 100 µM (inactive)	> 100 µM (inactive)	> 100 µM (inactive)	> 100 µM (inactive)	> 100 µM (inactive)	> 100 µM (inactive)	> 100 µM (inactive)	> 100 µM (inactive)	> 100 µM (inactive)	> 100 µM (inactive)	> 100 µM (inactive)	> 100 µM (inactive)	> 100 µM (inactive)
COC(=O)C1(C(=O)OC)C/C(C)=C(/C)SCCCS1	> 100 µM (inactive)	> 100 µM (inactive)	> 100 µM (inactive)	> 100 µM (inactive)	> 100 µM (inactive)	> 100 µM (inactive)	> 100 µM (inactive)	> 100 µM (inactive)	92.7 µM (inactive)	> 100 µM (inactive)	> 100 µM (inactive)	49.5 µM (inactive)	> 100 µM (inactive)	> 100 µM (inactive)	44.4 µM (inactive)	> 100 µM (inactive)	> 100 µM (inactive)	> 100 µM (inactive)	> 100 µM (inactive)	> 100 µM (inactive)
CC(C)(C)c1ccc(OCCOc2ccc(C(C)(C)C)cc2N)c(N)c1	25.6 µM (inactive)	22.2 µM (inactive)	10 µM (inactive)	> 100 µM (inactive)	11.4 µM (inactive)	17.1 µM (inactive)	> 100 µM (inactive)	48.8 µM (inactive)	> 100 µM (inactive)	> 100 µM (inactive)	> 100 µM (inactive)	17.4 µM (inactive)	38.5 µM (inactive)	> 100 µM (inactive)	> 100 µM (inactive)	20 µM (inactive)	> 100 µM (inactive)	> 100 µM (inactive)	24.2 µM (inactive)	> 100 µM (inactive)
CCOC(=O)c1c(Nc2ccccc2)sc2cccnc12	28 µM (inactive)	30.3 µM (inactive)	5.48 µM (inactive)	35.5 µM (inactive)	21 µM (inactive)	2.43 µM (inactive)	3.56 µM (inactive)	21.9 µM (inactive)	17.4 µM (inactive)	7.66 µM (inactive)	25.7 µM (inactive)	1.9 µM (inactive)	23 µM (inactive)	21.4 µM (inactive)	15.6 µM (inactive)	23.3 µM (inactive)	18.5 µM (inactive)	3.24 µM (inactive)	35.3 µM (inactive)	29.9 µM (inactive)
COc1cc2c(cc1OC(=O)c1cc3ccccc3[nH]1)N=C[C@@H]1CCCN1C2=O	0.851 µM (active)	0.398 µM (active)	0.185 µM (active)	0.363 µM (active)	0.157 µM (active)	0.292 µM (active)	0.175 µM (active)	0.461 µM (active)	0.296 µM (active)	0.352 µM (active)	0.165 µM (active)	0.542 µM (active)	0.274 µM (active)	1.03 µM (active)	0.18 µM (active)	0.409 µM (active)	0.841 µM (active)	0.269 µM (active)	1.3 µM (inactive)	0.706 µM (active)
